Laboratory results as given in patent US9914910B2, “Methods of preserving and protecting pancreatic beta cells and treating or preventing diabetes by inhibiting NOX-1” (Eastern Virginia Medical School, priority 2013, dated 2018).

How the values were obtained:
INS-1 cells [1] = experiment: ROS measurement (DCF-DA) after pro-inflammatory cytokine cocktail (PIC); type: cell-based, rat
Method: INS-1 cells were cultured in RPMI-1640 media (Life Technologies, Grand Island, N.Y.) supplemented with 10% fetal calf serum, 1% penicillin/streptomycin, 10 mM Hepes, 2 mM Lglutamine, 1 mM sodium pyruvate, and 0.05 mM 2-mercaptoethanol at 370 C with 5% CO2.
Cells treated for 1 hour were then washed with PBS prior to addition of 10 μM 6-Carboxy-2′,7′-Dichlorodihydrofluorescein Diacetate, Di(Acetoxymethyl ester) (DCF-DA, Life Technologies) for 30 min at 370 C. Post PBS wash cells were incubated at 370 C for 1 hour. Prior to fluorescence measurement (SpectraMax Molecular Devices, Sunnyvale, Calif.) at excitation 480 nm: emission 530 nm.
Elevation of cellular ROS in beta-cell lines INS-1 (rat beta-cell line) and βTC-3 (mouse beta-cell line) was evaluated by conversion of fluorescent substrate DCF-DA. Following one hour stimulation with a pro-inflammatory cytokine cocktail (PIC; IL-1β, TNF-α, and IFN-γ) detectable ROS elevated from control levels of 0.05±0.02 and 0.09±0.03 (INS-1 and βTC-3 respectively) to 0.25±0.04 and 0.23±0.03 (INS-1 and βTC-3 respectively). This increase was significant p<0.05 and p<0.01 (INS-1 and βTC-3 respectively).

βTC-3 cells [2] = experiment: Caspase-3 assay (pro-caspase-3 cleavage) after PIC; type: cell-based, mouse; conditions: βTC-3, PIC 4 hours, up to
Method: (§1) A. Caspase-3 Assay: Pro-caspase-3 cleavage was measured using a caspase-3 Assay kit (BD Pharmigen, Franklin Lakes, N.J.) per the manufacturer's instructions; fluorescence being measured (SpectraMax, Molecular Devices, Sunnyvale, Calif.) at excitation 380 nm and emission 440 nm (INS-1) or 460 nm (βTC-3, mouse).

primary mouse islets [3] = experiment: Caspase-3 assay (pro-caspase-3 cleavage) after PIC; type: cell-based; conditions: 4 hours, up to
Method: (§2) Human donor islets were obtained from integrated islet distribution project (http://iidp.coh.org) and cultured in CMRL media (Mediatech, Manassas, Va.). Mouse islets were freshly isolated from 8-week old male C57BL/6J mice (Jackson Laboratory, Bar Harbor, Me.) by common bile duct cannulation and collagenase digestion. Islets were hand picked prior to use.
as §1

beta cells = experiment: Pro-caspase 3 cleavage after PIC, beta cell survival; type: cell-based; conditions: C1 100 nM, ML171 10 μM
Method: Loss of beta cell viability in response to inflammatory cytokines was assessed by measurement of caspase 3 activation and quantified microscopy. […] Measured by pro-caspase 3 cleavage (A) or quantified microscopy of YO-PRO-1 stained cells (B). […] Shown are RFU from fluorescent capase3 substrate, ##p<0.01 relative to control; *p<0.05; **p<0.01 relative to PIC (A) and Microscopic apoptotic index ###p<0.001 relative to control; ***p<0.001; **p<0.01 relative to PIC (B).

INS-1 cells [4] = experiment: Apoptosis by YO-PRO-1 fluorescence microscopy after PIC; type: cell-based, rat; conditions: INS-1, PIC 24 hours, p<0.001
Method: B. Fluorescence microscopy: Stimulated cells or islets were washed in cold PBS, and incubated for 30 mins at 40 C with cold PBS containing 1 μg/mL propidium iodide and 0.1 μM YO-PRO-1 (Life Technologies). For cell lines, five randomly fields per well were analyzed. For islets, all islets (>1000 um2 in size) were analyzed. Densitometric fluorescent value for YO-PRO-1 (green channel) was normalized to background and expressed proportional to cell occupied area (phase contrast). Images captured across three channels with Axiophot (Zeiss, Jena, Germany) with Axiovision (Zeiss) image analysis.

[5] = tested on: NOX-1 gene expression in INS-1 cells; experiment: PIC-induced NOX-1 gene expression (RT-PCR); type: cell-based, rat; conditions: INS-1, PIC 24 hours
Method: Total RNA was isolated using the RNeasy Mini Kit (Qiagen, Valencia, Calif.) and cDNA prepared using MMLV reverse transcriptase (Life Technologies) and random hexamers (Life Technologies). Jump Start Taq polymerase (Life Technologies) was used in PCR reactions. […] RT-PCR reactions were performed in triplicate (CFX96 Bio-Rad, Hercules, Calif.). Taqman primers (Life Technologies) were also used. Data was normalized to the housekeeping gene GAPDH and analyzed using the 2-ΔΔCT method.

[6] = tested on: NOX-1 protein in piglet islets; experiment: PIC-induced NOX-1 protein in piglet islets; type: cell-based; conditions: 1 μM, 18 hours
Method: The methods disclosed herein may also be utilized in the preparation of viable xenotransplantable porcine islets and/or the treatment of a mammalian patient (including humans) suffering from diabetes involving the transplantation into the mammal of viable porcine islets capable of producing insulin within the host. Piglet islets are candidates for xenotransplantation of piglet islets with cytokines (PIC; TNF, IL-1, IFN) induced expression of NOX-1 protein. […] Islets were treated for 18 hours. Data supports feedforward regulation of NOX-1 expression and effective uncoupling of this pathway in piglet islets by inhibition of NOX-1 activity.

INS-1 cells [7] = experiment: Glucose-stimulated insulin secretion (GSIS) after PIC; type: cell-based, rat; conditions: INS-1, 1 mM vs 16 mM glucose, p<0.05
Method: (§3) Treated islets or cells then were washed with PBS and placed in 1 mL serum-free Kreb-Ringer buffer (115 mM NaCl, 24 mM NaHCO3, 5 mM KCl, 1 mM MgCl2, and 25 mM HEPES) for 1 hour at 370 C. Low (1 mM) or high (16 mM) glucose was added for […] for 30 min. Insulin levels in media were measured by ELISA (Mercodia, Winston Salem, N.C.) as per the manufacturer's instructions.
FIG. 4: Treatment of homogeneous rat beta cell line (INS-1) with pro-inflammatory cytokines (PIC) (TNFα, IL-1β, IFNγ) disrupts beta cell function measured by glucose-stimulated-insulin-secretion. Control (non cytokine-treated) cells respond to glucose elevation ([…]) by increasing insulin secretion. Insulin levels are plotted. In the presence of inflammatory cytokines (PIC) this response is lost and the dysfunctional cells ‘leak’ insulin. […] (*p<0.05, **p<0.01).

βTC-3 cells [8] = experiment: as above; type: cell-based, mouse; conditions: βTC-3, 1 mM vs 16 mM glucose, p<0.01
Method: as §3

primary mouse islets [9] = experiment: as above; type: cell-based; conditions: 10 μM ML171, 1 mM vs 16 mM glucose
Method: as §2, §3

human colon cancer cells = conditions: cited from earlier work

For `CC(=O)c1ccc2c(c1)Nc1ccccc1S2` [ML171, 2-acetylphenothiazine], the “inhibition of PIC-induced ROS (DCFDA conversion)” value (INS-1 cells [1]; INS-1, PIC 1 hour) was “dose dependent inhibition”, the “concentration of maximal protection from PIC-induced ROS” value (INS-1 cells [1]; analogous results for INS-1 and βTC-3) was 10 µM and the “block of PIC-induced activation of caspase-3” value (“block” below) (βTC-3 cells [2]) was ≤ 97%±3.1%. For the same molecule, the “block” value (primary mouse islets [3]; 1 μM) was “up to 100%±7%”, the “block” value (primary mouse islets [3]; 10 μM) was ≤ 100%±3% and the “inflammatory cytokine-induced cell death, pro-caspase 3 cleavage” value (beta cells) was “significantly protected”. For the same molecule, the “PIC-induced apoptosis (YO-PRO-1)” value (INS-1 cells [4]) was “apoptosis was significantly decreased”, the “inhibition of PIC-induced expression of NOX-1 gene” value [5] was 33% and the “PIC-induced NOX-1 protein” value [6] was “reduces PIC-induced NOX-1 protein”. The “glucose-stimulated insulin secretion with PIC” value (INS-1 cells [7]) was “restoring the glucose-sensitive insulin response”, the “glucose-stimulated insulin secretion with PIC” value (βTC-3 cells [8]) was “restoring the glucose-sensitive insulin response” and the “glucose stimulated insulin response with PIC” value (primary mouse islets [9]) was “partially restored”. For the same molecule, the “NOX-1 activity in human colon cancer cells” value (human colon cancer cells) was “inhibits NOX-1 activity”.
